Read-outs that look alike come from different tables or passages of the source.

Results on 10 molecules are retold here after patent publication US6469034B1, “Cyclohexenyl-ethyl-thiourea compounds for inhibiting HIV reverse transcriptase” (Parker Hughes Institute, priority 1999, dated 2002).

Series [1] deals with T1, purified recombinant HIV RT (Human immunodeficiency virus type 1 group M subtype B, UniProt P03366).
T1 construct: Addition of 10 mU of recombinant HIV RT
Briefly: Purified RT assay, cell-free Quan-T-RT scintillation proximity assay. Format: biochemical. As for the experimental part: In the assay, a DNA/RNA template is bound to SPA beads via a biotin/strepavidin linkage. The primer DNA is a 16-mer oligo(T) which has been annealed to a poly(A) template. The primer/template is bound to a strepavidin-coated SPA bead.
^3H-TTP is incorporated into the primer by reverse transcription. […] The compound being tested was added to the reaction mixture at 0.001 μM-100 μM concentrations. […] The reaction was stopped by addition of 0.2 ml of 120 mM EDTA. The samples were counted in an open window using a Beckman LS 7600 instrument and IC50 values were calculated by comparing the measurements to untreated samples.

Series [2] relates to RT Y181C mutant A17 strain. The experiment in a line: microbe, parasite or virus in culture. Format: cell-based, HIV-1. Particulars: for IC50: read-out: IC50 A17. As for the experimental part:
(§1) In addition, the anti-HIV activity of the compounds was measured by determining their ability to inhibit the replication of the HIV-1 strains HTLVIIIB, RT-MDR, A17, and A17 variant in peripheral blood mononuclear cells (PBMC) from healthy volunteer donors, using the method described in Uckun et.al., 1998, Antimicrobial Agents and Chemotherapy 42:383.
(§2) Normal human peripheral blood mononuclear cells (PBMNC) from HIV-negative donors were cultured 72 hours in RPMI 1640 supplemented with 20% (v/v) heat-inactivated fetal bovine serum (FBS), 3% interleukin-2,2 mM L-glutairine, 25 mM HEPES, 2 μL, NAHCO, […] gentamicin, and 4 μg/mL phytohemagglutinin prior to exposure to HIV-1 or other HIV strain at a multiplicity of infection (MOI) of 0.1 during a one-hour adsorption period at 37° C. in a humidified 5% CO2 atmosphere. Subsequently, cells were cultured in 96-well microplates (100 μL/well; 2×10^6 cells/mL, triplicate wells) in the presence of various inhibitor concentrations. Aliquots of culture supernatants were removed from the wells on the 7th day after infection for p24 antigen p24 enzyme immunoassays (EIA), as previously described in Erice et al., 1993, Antimicrob. Ag. Chemotherapy 37:385-838. The applied p24 EIA was the unmodified kinetic assay commercially available from Coulter Corporation/Immunotech, Inc. (Westbrook, Me.). Percent inhibition of viral replication was calculated by comparing the p24 values from the test substance-treated infected cells with p24 values from untreated infected cells (i.e, virus controls).
(§3) RT-MDR was obtained through the AIDS Research and Reference Reagent Program, from Dr. Bendan Larder, and is described in Larder et al., 1993, Nature, 365, 451-453.

In series [3] the test system is A17 variant with both Y181C and K103N mutations in RT. Briefly: microbe, parasite or virus in culture. The series is classed as cell-based, HIV-1. Particulars: read-out: IC50 A17 variant. As for the experimental part:
as §1, §2, §3

The test system of series [4] is multidrug resistant HIV-1 strain RT-MDR. Briefly: microbe, parasite or virus in culture. The series is classed as cell-based. Particulars: for times more effective against RT-MDR than against HTLVIIIB: ratio RT-MDR vs HTLVIIIB; for times more potent than AZT against RT-MDR: vs AZT; for times more potent than MKC-442 against RT-MDR: vs MKC-442; for times more potent than delavirdine against RT-MDR: vs delavirdine; for times more potent than nevirapine against RT-MDR: vs nevirapine; for times more potent than trovirdine against RT-MDR: vs trovirdine. As for the experimental part:
as §1, §2, §3

The nature of series [5]: Microculture tetrazolium assay (MTA, XTT) for cytotoxicity. The settings on record: for CC50: cytotoxicity, XTT; for toxicity at effective concentrations: in words. Format: cell-based. In general terms: Tetrazolium dyes change colour on reduction, which living cells bring about.
The next series has as its system HIV-1 strain HTLVIIIB
The experiment in a line: Inhibition of HIV p24 antigen production in PBMC, strain HTLVIIIB
The series is classed as cell-based. Particulars: read-out: IC50 HTLVIIIB
As for the experimental part:
as §1, §2, §3

The mark [6] stands for this setting: Human immunodeficiency virus 1, PBMC, 168 h.
The mark [7] stands for this setting: Human immunodeficiency virus 1, PBMC, 168 h, read-out: IC50 RT-MDR.
The mark [8] stands for this setting: Human immunodeficiency virus 1, PBMC, read-out: IC50 against RT-MDR.
[9] abbreviates: recombinant HIV RT, 37° C., 1 hour, read-out: IC50 rRT.
Where [10] appears, read: ranking order of potency, read-out: IC50 against RT-MDR.

In the case of `S=C(NCCC1=CCCCC1)Nc1ccc(Cl)cn1` [HI-445, N-[2-(5-Chloropyridinyl)]-N′-[2-(1-Cyclohexenyl)ethyl]thiourea], the melting point is 165 °C. Moreover, in series [1], the IC50 is 0.5 µM. Also, in series [2] (setting [6]), the IC50 is 0.068 µM. Moreover, the “fold more effective than nevirapine or delavirdine against A17” value in series [2] (vs nevirapine or delavirdine) is > 1,400 fold. The “fold more effective than trovirdine against A17” value in series [2] (vs trovirdine) is above 7 fold. Besides, the IC50 in series [3] (setting [6]) amounted to 30 µM. The IC50 in series [4] (setting [7]) was determined as 0.001 µM. Further, the IC50 in series [4] (setting [8]) was found to be 0.001 µM. In series [4], the “times more effective against RT-MDR than against HTLVIIIB” value is reported as 3 times, the “times more potent than AZT against RT-MDR” value is reported as 200 times, the “times more potent than MKC-442 against RT-MDR” value is reported as 300 times and the “times more potent than delavirdine against RT-MDR” value is given as 400 times. Moreover, in series [4], the “times more potent than nevirapine against RT-MDR” value was determined as 5000 times and the “times more potent than trovirdine against RT-MDR” value amounted to 20 times. Further, in series [5], the CC50 is above 100 µM and the “toxicity at effective concentrations” value is reported as “Neither compound exhibited significant toxicity”. For the same molecule, in the series on HIV-1 strain HTLVIIIB (setting [6]), the IC50 is 0.003 µM.

With `CC1(C)C2CCC(CNC(=S)Nc3ccc(Br)cn3)C1C2` (stereo not drawn) [HI-444, N-[2-(5-Bromopyridinyl)]-N′-[2-(2-Myrtanyl)]thiourea], the melting point is 180 to 181 °C. Besides, the IC50 in series [1] (setting [9]) was above 100 µM.

Consider `S=C(NCCC1C2CC3CC(C2)CC1C3)Nc1ccc(Br)cn1` (stereo not drawn) [HI-504, N-[2-(5-Bromopyridinyl)]-N′-[2-(2-Adamantyl)]thiourea], for which the IC50 in series [1] (setting [9]) is above 100 µM.

In the case of `S=C(NCCC1=CCCCC1)Nc1ccc(Br)cn1` [HI-346, N-[2-(5-Bromopyridinyl)]-N′-[2-(1-Cyclohexenyl)ethyl]thiourea], the melting point lay in the range of 172 to 173 °C. Also, the IC50 in series [1] was 0.4 µM. Moreover, the half-maximal inhibitory concentration (IC50) in series [3] (setting [6]) worked out at 18.7 µM. Further, the IC50 in series [4] (setting [7]) worked out at 0.001 µM. Besides, in series [4] (setting [8]), the IC50 was 0.001 µM. In series [4], the “times more effective against RT-MDR than against HTLVIIIB” value amounted to 3 times, the “times more potent than AZT against RT-MDR” value was determined as 200 times, the “times more potent than MKC-442 against RT-MDR” value came out at 300 times and the “times more potent than delavirdine against RT-MDR” value came out at 400 times. Also, in series [4], the “times more potent than nevirapine against RT-MDR” value is listed as 5000 times and the “times more potent than trovirdine against RT-MDR” value is given as 20 times. In series [5], the CC50 is above 100 µM and the “toxicity at effective concentrations” value is listed as “Neither compound exhibited significant toxicity”. Further, the IC50 with HIV-1 strain HTLVIIIB (setting [6]) amounted to 0.003 µM.

Consider `CCOCn1c(Cc2ccccc2)c(C(C)C)c(=O)[nH]c1=O` [MKC-442, reference compound], for which the IC50 turned out to be 0.8 µM in series [1] (setting [9]), 0.3 µM in series [4] (setting [7]) and 0.3 µM in series [4] (setting [8]). The molecule further had a CC50 in series [5] above 100 µM.

For the molecule `Cc1ccnc2c1NC(=O)c1cccnc1N2C1CC1` [Nevirapine, reference compound], the IC50 was above 100 µM in series [2] (setting [6]); above 100 µM in series [3] (setting [6]); 5 µM in series [4] (setting [7]); 5 µM in series [4] (setting [8]); 0.034 µM in the series on HIV-1 strain HTLVIIIB (setting [6]). In series [5], the midpoint of cytotoxicity, the CC50, lay at 10.5 µM.

Take `FC(F)(F)c1ccc(NC(=S)NCCC2=CCCCC2)nc1` [HI-347, N-[2-(5-Trifluoromethylpyridinyl)]-N′-[2-(1-Cyclohexenyl)ethyl]thiourea]: the melting point was 161 to 162 °C. The half-inhibitory concentration (IC50) in series [1] is 4 µM. Further, the half-maximal inhibitory concentration (IC50) in series [2] (setting [6]) amounted to 0.3 µM. Moreover, the IC50 in series [3] (setting [6]) was above 100 µM. Further, the IC50 in series [4] (setting [7]) is 0.038 µM. In series [5], this molecule gave a half-maximal cytotoxic concentration (CC50) above 100 µM. In the series with HIV-1 strain HTLVIIIB (setting [6]), the IC50 is 0.079 µM.

Take `Cc1cn([C@H]2C[C@H](N=[N+]=[N-])[C@@H](CO)O2)c(=O)[nH]c1=O` [AZT, reference compound]: the IC50 in series [2] (p24 production in PBMC, day 7) was found to be 0.006 µM; in series [4] (setting [10]) it was 0.2 µM. This molecule also displayed a CC50 in series [5] above 100 µM.

For the molecule `S=C(NCCc1ccccn1)Nc1ccc(Br)cn1` [Trovirdine, N-[2-(5-Bromopyridinyl)]-N′-[2-(Pyridinyl)]thiourea, reference compound], the IC50 in series [1] (setting [9]) was 0.8 µM; in series [2] (p24 production in PBMC, day 7), 0.5 µM; in series [3] (p24 production in PBMC, day 7), above 100 µM; in series [4] (setting [10]) it was 0.02 µM; with HIV-1 strain HTLVIIIB (p24 production in PBMC, day 7), 0.007 µM. In addition, in series [5], the CC50 was above 100 µM.

Turning to `CC(C)Nc1cccnc1N1CCN(C(=O)c2cc3cc(NS(C)(=O)=O)ccc3[nH]2)CC1` [Delavirdine, reference compound], the IC50 in series [2] (setting [6]) is 50 µM; in series [3] (setting [6]), above 100 µM; in series [4] (setting [7]), 0.4 µM; in series [4] (setting [8]) it was 0.4 µM; in the series with HIV-1 strain HTLVIIIB (setting [6]), 0.009 µM. In series [5], this molecule came in with a CC50 of 3.6 µM.

By IC50 is commonly meant the concentration at which inhibition is half-maximal. In general, melting point refers to the temperature of the solid-liquid transition. In general, CC50 refers to the concentration at which the toxic effect on the cells reaches its halfway point. Read a high CC50 as better tolerance by the cells.
